Data published in patent US10450295B2, “Method of using an indolinone molecule and derivatives for inhibiting liver fibrosis and hepatitis” (Acclaim BioMed USA LLC, priority 2013, dated 2019).
“Also recorded” adds a separate entry of the source.

How the values were obtained:
collagen type I = assay: Immunofluorescent staining of HSC cultures, collagen type I; assay type: cell-based, human; settings: 0.625 μM, 24-48 hours
Description: (§1) Human Hepatic Stellate cells (LX-2 cell line) (HSCs) were obtained from the Key Lab of Regenerative Medicine, Jinan University, Guangzhou, China, which were maintained in Dulbecco's Modified Eagle Medium (DMEM)+10% fetal calf serum and penicillin-streptomycin (100 unit/ml and 0.1 mg/ml, respectively), in 5% CO2 at 37° C. inside a humidified cell incubator. The culture medium was changed every three days. To test the effects of small molecule Hesperadin on the mouse and human HSCs, the cultures were treated with 0.625 μM of Hesperadin for 48 hrs. The cultures were then fixed in ice cold 70% ethanol and incubated in phosphate buffered saline with RNase (0.25 mg/ml), Propidium iodide dye (40 μg/ml) and 0.1% Triton X for an hour at room temperature. For cell cycle analysis, the Propidium iodide stained cells were examined using a flow cytometer (“BD LSRFortessa Cell Analyzer”). The proliferation of HSCs was also evaluated by the MTT staining assay with 3-(4,5-Dimethylthiazol-2-yl)-2,5-diphenyltetrazolium bromide). […] The absorbance (at 570 nm) was measured using a BIORAD 3550 Microplate Reader. […] After washing, the sections were viewed and recorded using a FluoView FV1000 Confocal microscope and/or a Nikon i80 microscope respectively to identify the presence of HSC expressing collagens. The positive staining of Collagen types I, III and IV was analyzed with the Metamorph software.

collagen type IV = assay: Immunofluorescent staining of HSC cultures, collagen type IV; assay type: cell-based, human; settings: 0.625 μM, 24-48 hours
Description: as §1

[1] = test system: collagen type I in fibrotic liver; assay: Carbon tetrachloride liver fibrosis mouse model, immunohistological staining for collagen type I; assay type: in vivo, mice
Description: The ability of Hesperadin to inhibit collagen expressions in a liver fibrosis mouse model was then examined. To induce fibrosis in the liver, mice were injected with carbon tetrachloride, twice a week, for 6 weeks. In control group of mice, they were injected with DMSO/saline, twice a week for 2 weeks. For the experimental group of mice, they were injected with either 50 or 500 μg/kg Hesperadin after chronic carbon tetrachloride treatment. […] In contrast, following chronic carbon tetrachloride treatment, collagen type I was expressed strongly at the lobules, the portal areas, the lining of the sinusoid and around the central veins (FIGS. 12A and 12B). […] In mice of carbon tetrachloride treatment alone, collagen type I was strongly expressed in the periphery of the hepatic sinusoids. Forty female ICR mice (6 weeks old) were acquired from the MOE Key laboratory for Regenerative Medicine. To induce liver fibrosis, the mice were injected i.p. with carbon tetrachloride (1.65 ml/kg body weight suspended in 0.1 ml olive oil) twice per week for a total of 6 weeks. In the control group, mice received carbon tetrachloride injection for 6 weeks followed by DMSO or saline injections, twice a week, for two weeks. In the experimental group, mice received carbon tetrachloride for 6 weeks followed by i.p. injections of 50 μg/kg or 500 μg/kg Hesperadin, twice a week, for two weeks. […] The extent of fibrosis was scored according to Zhou, et al. (5): 1=thickened perivenular collagen and a few thin collagen septa; 2=thin septa with incomplete bridging between portal regions; 3=thin septa and extensive bridging; 4=thickened septa with complete bridging of portal regions and a nodular appearance. Collagen content was measured with a Universal Imaging (Chester, Pa.) analysis system. Briefly, trichrome-stained liver sections were analysed using an Axioskope 50 microscope (CarlZeiss Lab). […] Collagen accumulation was calculated as the percentage of the total field at ×40 magnifications that was stained blue. The arrangement and morphology of the hepatocytes will also be examined and recorded. […]

human Aurora B kinase = settings: read-out: IC50 for the prevention of the phosphorylation of substrate; cited from earlier work

In the case of `CCS(=O)(=O)Nc1ccc2c(c1)/C(=C(/Nc1ccc(CN3CCCCC3)cc1)c1ccccc1)C(=O)N2` [Hesperadin, (Z)—N-(2-oxo-3-(Phenyl(4-(piperidin-1-ylmethyl)phenylamino)methylene)indolin-5-yl)ethanesulfonamide], the “collagen type I expression (immunofluorescence)” value (collagen type I) is reported as “significantly inhibited; also recorded: inhibits the synthesis of collagen type I”, the “collagen type IV expression (immunofluorescence)” value (collagen type IV) is reported as “significantly inhibited; also recorded: inhibits the synthesis of collagen type IV” and the “collagen type I in histological liver sections” value ([1]; 50 μg/kg i.p. twice a week for two weeks after 6 weeks CCl4, mice) is reported as “less collagen type I evident”. For the same compound, the “collagen type I in histological liver sections” value ([1]; 500 μg/kg i.p. twice a week for two weeks after 6 weeks CCl4, mice) was “less collagen type I evident; also recorded: significantly less collagen staining”, the “quantified intensity of collagen type I staining” value ([1]; 500 μg/kg, FIG. 13, p<0.05) was “significant reduction in collagen type I production and expression” and the IC50 (human Aurora B kinase) was 40 nM.
